# The source made the active and inactive calls.
# Key:
# [1] = target: T1, Heat shock factor protein 1 (Mus musculus, UniProt P38532); assay: inhibition of MG132-induced HSE-luciferase signal, confirmation, cell-based, NIH3T3, luminescence, dose retest (AID 2382); assay type: functional;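 further: NIH3T3 fibroblasts with HSF1-driven luciferase reporter stressed by proteasome inhibitor MG132; luminescence from HSF1-driven luciferase expression after 8 hours of MG132 stress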
# T1 sequence (P38532 whole entry): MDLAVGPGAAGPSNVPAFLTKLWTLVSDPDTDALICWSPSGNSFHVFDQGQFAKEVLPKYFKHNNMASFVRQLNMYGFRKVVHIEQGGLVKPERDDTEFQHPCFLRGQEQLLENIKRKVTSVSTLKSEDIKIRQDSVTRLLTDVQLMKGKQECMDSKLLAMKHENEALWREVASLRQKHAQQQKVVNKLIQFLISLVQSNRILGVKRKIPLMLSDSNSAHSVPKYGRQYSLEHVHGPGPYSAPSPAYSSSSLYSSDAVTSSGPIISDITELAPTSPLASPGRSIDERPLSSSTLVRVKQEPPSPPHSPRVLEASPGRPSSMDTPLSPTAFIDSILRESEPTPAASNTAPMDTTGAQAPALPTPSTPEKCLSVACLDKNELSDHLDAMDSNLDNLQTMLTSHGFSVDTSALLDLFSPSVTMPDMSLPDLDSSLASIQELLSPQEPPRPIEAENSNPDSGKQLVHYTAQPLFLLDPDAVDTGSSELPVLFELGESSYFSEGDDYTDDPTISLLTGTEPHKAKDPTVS
# [2] = target: T2, Replicative DNA helicase DnaB (Mycobacterium tuberculosis, UniProt P9WMR3); assay: DnaB intein splicing inhibitors, dose response, biochemical, cell-free fluorescence (AID 449749); assay type: functional
# T2 sequence (P9WMR3 whole entry): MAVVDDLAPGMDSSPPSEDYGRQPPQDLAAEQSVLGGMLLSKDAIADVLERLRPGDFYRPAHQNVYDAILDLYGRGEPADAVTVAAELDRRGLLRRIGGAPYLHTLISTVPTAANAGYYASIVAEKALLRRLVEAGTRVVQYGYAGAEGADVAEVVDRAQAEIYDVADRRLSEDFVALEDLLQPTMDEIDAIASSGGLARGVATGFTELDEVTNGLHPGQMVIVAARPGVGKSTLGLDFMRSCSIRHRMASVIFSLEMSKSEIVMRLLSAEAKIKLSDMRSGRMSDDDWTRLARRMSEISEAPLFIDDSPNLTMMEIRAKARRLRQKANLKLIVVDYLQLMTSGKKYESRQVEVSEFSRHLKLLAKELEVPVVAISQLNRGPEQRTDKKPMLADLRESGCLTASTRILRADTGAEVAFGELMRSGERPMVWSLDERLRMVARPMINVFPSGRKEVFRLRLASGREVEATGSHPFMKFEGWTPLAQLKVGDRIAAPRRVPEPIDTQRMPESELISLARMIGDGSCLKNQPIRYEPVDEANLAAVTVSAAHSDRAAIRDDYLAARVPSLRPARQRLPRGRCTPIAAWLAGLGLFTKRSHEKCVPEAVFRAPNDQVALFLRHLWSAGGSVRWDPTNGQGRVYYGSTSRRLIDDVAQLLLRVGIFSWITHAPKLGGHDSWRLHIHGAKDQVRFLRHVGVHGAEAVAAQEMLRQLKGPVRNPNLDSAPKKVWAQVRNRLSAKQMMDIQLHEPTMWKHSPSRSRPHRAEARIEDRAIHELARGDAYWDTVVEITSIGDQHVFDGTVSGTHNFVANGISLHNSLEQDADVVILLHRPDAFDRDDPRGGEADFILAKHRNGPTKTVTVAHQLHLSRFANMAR
# Protein RecA = target: T3, Protein RecA (Mycobacterium tuberculosis, UniProt P9WHJ3); assay: Fluorescence Cell-Free Homogeneous Dose Retest to Identify Inhibitors of RecA-Intein Splicing Activity. [Related pubchem assays (depositor defined):AID2097, AID2223, AID489010, AID492950]; assay type: functional
# T3 sequence (P9WHJ3 whole entry): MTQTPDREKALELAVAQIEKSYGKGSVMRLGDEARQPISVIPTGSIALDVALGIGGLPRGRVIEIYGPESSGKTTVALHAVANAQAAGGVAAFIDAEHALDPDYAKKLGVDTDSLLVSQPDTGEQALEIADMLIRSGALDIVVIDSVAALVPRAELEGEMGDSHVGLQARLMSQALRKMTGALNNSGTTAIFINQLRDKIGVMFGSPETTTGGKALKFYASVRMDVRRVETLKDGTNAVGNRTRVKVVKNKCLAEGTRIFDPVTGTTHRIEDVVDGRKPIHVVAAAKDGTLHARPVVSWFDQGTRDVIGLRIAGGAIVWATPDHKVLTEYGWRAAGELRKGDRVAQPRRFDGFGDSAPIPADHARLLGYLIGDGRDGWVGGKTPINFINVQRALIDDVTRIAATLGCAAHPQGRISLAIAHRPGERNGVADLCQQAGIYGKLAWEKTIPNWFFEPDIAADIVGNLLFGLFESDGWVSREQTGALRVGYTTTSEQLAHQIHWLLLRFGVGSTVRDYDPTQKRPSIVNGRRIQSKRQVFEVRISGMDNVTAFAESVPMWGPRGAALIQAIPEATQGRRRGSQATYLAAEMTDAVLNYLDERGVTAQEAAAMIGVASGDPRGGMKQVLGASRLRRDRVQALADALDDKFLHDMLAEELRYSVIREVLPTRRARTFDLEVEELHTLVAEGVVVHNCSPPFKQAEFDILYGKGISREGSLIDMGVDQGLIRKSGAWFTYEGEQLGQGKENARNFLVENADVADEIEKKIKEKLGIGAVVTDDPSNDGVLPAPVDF
# [3] = target: FAD-linked sulfhydryl oxidase ALR (Homo sapiens, UniProt P55789); assay: inhibitors of human ALR sulfhydryl oxidase, dose response, biochemical, H2O2 detection, luminescence, cherry-pick (AID 493248)
# [4] = C. albicans growth with fluconazole, confirmation, fluorescence, retest (AID 2467); assay type: functional, cell-based
# [5] = NIH-3T3 fibroblast cytotoxicity, dose response, cytotoxicity control, cell-based, fluorescence, Alamar Blue, secondary assay (AID 2327); assay type: functional;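 further: NIH-3T3 mouse fibroblasts cultured with fluconazole at 8 µg/mL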
# Cytochrome P450 3A4 = Cytochrome P450 3A4 (Homo sapiens, UniProt P08684);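 further: CYP3A4 tested as one member of a cytochrome P450 panel screen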
# Cytochrome P450 1A2 = target: T4, Cytochrome P450 1A2 (Homo sapiens, UniProt P05177);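 further: PubChem cytochrome P450 panel assay, CYP1A2 panel member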
# T4 sequence (P05177 whole entry): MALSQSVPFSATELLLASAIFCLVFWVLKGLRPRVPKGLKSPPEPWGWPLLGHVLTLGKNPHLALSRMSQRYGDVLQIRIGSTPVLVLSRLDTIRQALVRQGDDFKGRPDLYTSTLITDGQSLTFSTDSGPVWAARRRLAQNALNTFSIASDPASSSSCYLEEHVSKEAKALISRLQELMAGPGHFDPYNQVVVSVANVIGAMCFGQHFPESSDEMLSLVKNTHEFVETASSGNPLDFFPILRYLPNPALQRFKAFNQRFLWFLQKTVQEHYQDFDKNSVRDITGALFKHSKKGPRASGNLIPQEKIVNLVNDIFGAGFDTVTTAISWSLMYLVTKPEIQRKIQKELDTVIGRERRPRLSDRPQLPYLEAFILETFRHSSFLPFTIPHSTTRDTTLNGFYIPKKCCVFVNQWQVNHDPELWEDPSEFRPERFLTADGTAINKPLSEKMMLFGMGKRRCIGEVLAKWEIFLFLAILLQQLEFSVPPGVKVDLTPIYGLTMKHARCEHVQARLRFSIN
# Cytochrome P450 2C9 = Cytochrome P450 2C9 (Homo sapiens, UniProt P11712)
# [6] = Shn3 3'UTR reporter inhibitors, dose response, cell-based, Clone20 osteoblasts, firefly luciferase, cherry-picked (AID 624132); assay type: functional;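 further: firefly luciferase luminescence from reporter carrying the Shn3 3'UTR in osteoblasts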
# Cytochrome P450 3A4, sequence (P08684 whole entry): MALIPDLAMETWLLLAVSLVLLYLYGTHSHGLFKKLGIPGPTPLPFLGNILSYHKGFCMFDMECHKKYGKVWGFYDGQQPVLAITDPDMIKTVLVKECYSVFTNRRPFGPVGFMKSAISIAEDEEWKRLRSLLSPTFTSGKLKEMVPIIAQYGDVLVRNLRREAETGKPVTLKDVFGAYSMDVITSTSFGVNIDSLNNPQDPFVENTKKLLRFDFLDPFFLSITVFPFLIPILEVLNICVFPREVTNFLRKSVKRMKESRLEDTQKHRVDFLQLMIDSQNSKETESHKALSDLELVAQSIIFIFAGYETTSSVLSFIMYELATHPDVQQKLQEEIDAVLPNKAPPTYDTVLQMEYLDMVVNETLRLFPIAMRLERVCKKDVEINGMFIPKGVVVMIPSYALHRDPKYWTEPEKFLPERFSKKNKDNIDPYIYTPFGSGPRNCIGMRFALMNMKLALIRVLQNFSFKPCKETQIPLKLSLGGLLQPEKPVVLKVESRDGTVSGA
# FAD-linked sulfhydryl oxidase ALR, sequence (P55789 whole entry): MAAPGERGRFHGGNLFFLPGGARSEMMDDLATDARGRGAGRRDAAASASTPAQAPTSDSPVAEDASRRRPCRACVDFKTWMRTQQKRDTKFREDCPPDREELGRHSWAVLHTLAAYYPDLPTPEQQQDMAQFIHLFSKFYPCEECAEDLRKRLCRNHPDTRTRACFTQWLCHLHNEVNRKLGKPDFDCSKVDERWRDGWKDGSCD
# Cytochrome P450 2C9, sequence (P11712 whole entry): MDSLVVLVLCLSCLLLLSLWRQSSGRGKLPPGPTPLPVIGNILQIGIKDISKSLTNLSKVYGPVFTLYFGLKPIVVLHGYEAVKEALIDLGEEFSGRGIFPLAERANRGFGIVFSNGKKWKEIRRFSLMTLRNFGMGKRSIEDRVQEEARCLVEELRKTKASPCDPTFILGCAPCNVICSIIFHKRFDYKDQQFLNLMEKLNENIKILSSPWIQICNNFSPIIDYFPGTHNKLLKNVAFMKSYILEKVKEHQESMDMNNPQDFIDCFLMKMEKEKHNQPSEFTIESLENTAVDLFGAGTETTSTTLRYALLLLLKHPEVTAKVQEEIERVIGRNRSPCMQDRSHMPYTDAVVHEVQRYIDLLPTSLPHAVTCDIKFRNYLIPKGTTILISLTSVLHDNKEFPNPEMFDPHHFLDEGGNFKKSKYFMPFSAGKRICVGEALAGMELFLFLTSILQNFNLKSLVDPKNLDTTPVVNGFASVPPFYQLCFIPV
compound,measurement,setting,value
Cc1ccc(NC(=O)CCN2C(=O)C3CCCCC3C2=O)cc1[N+](=O)[O-] (stereo unspecified),EC50,[1],> 195 µM (not active)
COc1nc(NC(C)C)nc(N(C#N)CN2C(=O)c3ccccc3S2(=O)=O)n1,AC50,[2],24.4 µM (active)
same,EC50,Protein RecA,26.4 µM (inconclusive)
Cc1ccc(S(=O)(=O)c2ccc(Oc3ccccc3)cc2)cc1,EC50,[1],21.5 µM (active)
N=C(NC(=O)c1ccc(Cl)cc1)Nc1nc2ccccc2o1,EC50,[1],> 195 µM (not active)
CCS(=O)(=O)c1nc(S(=O)(=O)c2ccc(C)cc2)c(N2CCC(C)CC2)s1,EC50,[1],> 195 µM (not active)
O=C(CNC1=NCCC1)c1ccc(Cl)cc1,AC50,[2],127 µM (active)
same,EC50,Protein RecA,23.1 µM (active)
O=C(CN1CCN(c2ccccc2O)CC1)Nc1cccnc1Cl,AC50,[3],2.17 µM (active)
Cc1ccc(NNC(=O)c2ccno2)cc1C,EC50,[4],0.763 µM (active)
same,EC50,[5],> 160 µM (inactive)
same,AC50,[3],0.439 µM (active)
CN(CC(=O)Nc1ccccc1Br)C(=O)c1cccn1C,EC50,[1],> 195 µM (not active)
COc1ccc(-c2nc3cnc(N4CCNCC4)nc3n(C)c2=O)cc1,AC50,Cytochrome P450 3A4,31.6 µM (inconclusive)
same,AC50,Cytochrome P450 1A2,12.6 µM (inconclusive)
CC(=O)Nc1ccc(S(=O)(=O)NC(C)C(=O)NCCc2ccc(F)cc2)cc1 (stereo unspecified),AC50,[3],0.031 µM (active)
COc1cccc(-c2ccc3ncnc(N4CCNCC4)c3c2)c1,AC50,Cytochrome P450 3A4,10 µM (inconclusive)
CC(=O)N1CC[n+]2c(-c3ccc(Cl)cc3)csc21,AC50,[3],1.88 µM (active)
CN(C)NC(=O)c1ccsc1NC(=O)c1ccc(S(=O)(=O)N2CCCC2)cc1,AC50,[3],0.835 µM (active)
C/C(=C\c1ccc(N)cc1)c1nc2ccccc2[nH]1,AC50,[3],0.321 µM (active)
COc1cccc(NC(=S)N(CCC(C)C)C2CCN(C(C)=O)CC2)c1,EC50,[1],> 195 µM (not active)
CC(=O)NCCNc1nc(-c2ccccc2Cl)nc2ccccc12,AC50,Cytochrome P450 3A4,5.01 µM (inconclusive)
COc1ccccc1/C=C/C1(C(=O)NC2CCCC2)CC(=O)N1c1ccc(C)cc1 (stereo unspecified),AC50,[2],9.29 µM (active)
same,EC50,Protein RecA,8.52 µM (active)
N[C@@H](CC1=CS(=O)(=O)c2ccc(Cl)cc21)C(=O)O,AC50,Cytochrome P450 3A4,5.01 µM (inconclusive)
same,AC50,Cytochrome P450 2C9,6.31 µM (inconclusive)
same,AC50,Cytochrome P450 1A2,0.398 µM (inconclusive)
CC(=O)N1CCC[C@@]2(CCN(Cc3nccs3)C2)C1,AC50,Cytochrome P450 3A4,31.6 µM (inconclusive)
COc1ccc2nc(O)c(CN(Cc3cccs3)S(=O)(=O)c3c(C)ccc4nsnc34)cc2c1,EC50,[1],0.503 µM (active)
Cc1cc(N=Nc2ccc(Cl)cc2)cc(CN2CCCC2)c1O,EC50,[1],> 195 µM (not active)
CC(=O)c1cccc(NC(=O)CSc2ncc(C(=O)Nc3ccccc3)c(=O)n2C)c1,AC50,[2],> 380 µM (inconclusive)
same,EC50,Protein RecA,1.21 µM (active)
O=C(Cc1ccccc1F)Nc1nc2ccccc2[nH]1,AC50,[2],0.0489 µM (inconclusive)
same,EC50,Protein RecA,> 380 µM (inconclusive)
CCOC(=O)C(C)c1ccc2cc(OC)ccc2c1 (stereo unspecified),EC50,[1],> 195 µM (not active)
CC(C)NS(=O)(=O)c1ccc(OCC(=O)N2CCCC2)c(Cl)c1,EC50,[1],> 195 µM (not active)
Cc1csc(NC(=O)CNS(=O)(=O)c2cccs2)n1,AC50,Cytochrome P450 3A4,17.8 µM (inconclusive)
CN(C)c1ccc(NC(=O)CN2CCc3ccccc3C2)cc1,AC50,[3],2.23 µM (active)
COc1cccc(CNCc2ccc(SC)cc2)c1OC,AC50,Cytochrome P450 3A4,11.2 µM (inconclusive)
Fc1ccc(Sc2nc(-c3ccccc3)nnc2C(F)(F)F)cc1,AC50,[2],1.45 µM (active)
same,EC50,Protein RecA,0.66 µM (active)
COc1ccc(C(=O)Nc2ccncc2)cc1[N+](=O)[O-],AC50,[2],> 380 µM (inactive)
same,EC50,Protein RecA,> 380 µM (inactive)
O=C(c1ccc2c(c1)OCO2)N1CCC2(CC1)OCCO2,EC50,[1],> 195 µM (not active)
CCSc1nnc(NC(=O)c2cccc(S(=O)(=O)N(C)c3ccccc3)c2)s1,AC50,[3],2.75 µM (active)
CC(NS(C)(=O)=O)C(c1cccs1)N1CCN(c2ccccc2)CC1 (stereo unspecified),AC50,[3],2.93 µM (active)
Cc1ccc(C(c2c(C)n[nH]c2O)c2c(C)n[nH]c2O)cc1[N+](=O)[O-],AC50,[2],0.442 µM (active)
same,EC50,Protein RecA,0.195 µM (active)
O=C1CCc2cccc(O)c2N1,AC50,[6],12.2 µM (active)
N#CC(c1ccccn1)(c1ncc(C(F)(F)F)cc1Cl)N1CCOCC1 (stereo unspecified),AC50,Cytochrome P450 3A4,35.5 µM (inconclusive)
CCc1n[nH]c2c1C(c1ccsc1)C(C#N)=C(N)O2 (stereo unspecified),AC50,[2],14.5 µM (active)
same,EC50,Protein RecA,9.87 µM (active)
COc1cc(/C=N/NC(=O)c2ccncc2)ccc1OC(=O)c1ccc([N+](=O)[O-])cc1,AC50,Cytochrome P450 3A4,0.891 µM (inconclusive)
same,AC50,Cytochrome P450 2C9,3.55 µM (inconclusive)
CCC(=O)Oc1oc(-c2ccccc2)nc1/C=N/c1ccccc1OC,EC50,[1],10.3 µM (active)
C[C@@H](N)Cn1ccc2cc(F)c(Cl)cc21,AC50,Cytochrome P450 3A4,39.8 µM (inconclusive)
